Results as given in PubChem BioAssay (NCI).
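Values below derive from 48-hour exposures of cells grown in 96-well plates, with endpoints linearly interpolated between the two concentrations bracketing the appropriate inhibition level. TGI denotes the concentration required for complete inhibition of growth.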

How the values were obtained:
Assay in all cases: NCI tumour cell line growth inhibition, 48 h
786-0 renal = test system: 786-0 renal
A498 renal = test system: A498 renal
A549 NSCLC = test system: A549 NSCLC
ACHN renal = test system: ACHN renal
CAKI-1 renal = test system: CAKI-1 renal
CCRF-CEM leukemia = test system: CCRF-CEM leukemia
COLO 205 colon = test system: COLO 205 colon
DLD-1 colon = test system: DLD-1 colon
DMS 273 small cell lung = test system: DMS 273 small cell lung
EKVX NSCLC = test system: EKVX NSCLC
HCC-2998 colon = test system: HCC-2998 colon
HCT-116 colon = test system: HCT-116 colon
HCT-15 colon = test system: HCT-15 colon
HL-60(TB) leukemia = test system: HL-60(TB) leukemia
HOP-18 NSCLC = test system: HOP-18 NSCLC
HOP-62 NSCLC = test system: HOP-62 NSCLC
HOP-92 NSCLC = test system: HOP-92 NSCLC
HT29 colon = test system: HT29 colon
IGROV1 ovarian = test system: IGROV1 ovarian
K-562 leukemia = test system: K-562 leukemia
KM12 colon = test system: KM12 colon
KM20L2 colon = test system: KM20L2 colon
LOX IMVI melanoma = test system: LOX IMVI melanoma
LXFL 529 NSCLC = test system: LXFL 529 NSCLC
M14 melanoma = test system: M14 melanoma
M19-MEL melanoma = test system: M19-MEL melanoma
MALME-3M melanoma = test system: MALME-3M melanoma
MOLT-4 leukemia = test system: MOLT-4 leukemia
NCI-H226 lung = test system: NCI-H226 lung
NCI-H23 lung = test system: NCI-H23 lung
NCI-H460 lung = test system: NCI-H460 lung
OVCAR-3 ovarian = test system: OVCAR-3 ovarian
OVCAR-4 ovarian = test system: OVCAR-4 ovarian
OVCAR-5 ovarian = test system: OVCAR-5 ovarian
OVCAR-8 ovarian = test system: OVCAR-8 ovarian
RPMI-8226 leukemia = test system: RPMI-8226 leukemia
RXF 393 renal = test system: RXF 393 renal
RXF-631 renal = test system: RXF-631 renal
SF-268 CNS = test system: SF-268 CNS
SF-295 CNS = test system: SF-295 CNS
SF-539 CNS = test system: SF-539 CNS
SK-MEL-2 melanoma = test system: SK-MEL-2 melanoma
SK-MEL-28 melanoma = test system: SK-MEL-28 melanoma
SK-MEL-5 melanoma = test system: SK-MEL-5 melanoma
SK-OV-3 ovarian = test system: SK-OV-3 ovarian
SN12C renal = test system: SN12C renal
SNB-75 CNS = test system: SNB-75 CNS
SNB-78 CNS = test system: SNB-78 CNS
SR leukemia = test system: SR leukemia
SW-620 colon = test system: SW-620 colon
TK-10 renal = test system: TK-10 renal
U251 CNS = test system: U251 CNS
UACC-257 melanoma = test system: UACC-257 melanoma
UACC-62 melanoma = test system: UACC-62 melanoma
UO-31 renal = test system: UO-31 renal
XF 498 CNS = test system: XF 498 CNS
DMS 114 small cell lung = test system: DMS 114 small cell lung
NCI-H522 lung = test system: NCI-H522 lung
SNB-19 CNS = test system: SNB-19 CNS

Measured: TGI

CC/C(=N\NS(=O)(=O)c1ccccc1)c1ccccc1
not listed: DMS 114 small cell lung | NCI-H522 lung | SNB-19 CNS
> 100 µM: all other assays above

CC1(c2ccccc2)CC(c2ccccc2)=NO1 (stereo not given)
not listed: KM20L2 colon | LOX IMVI melanoma | RXF 393 renal | RXF-631 renal | XF 498 CNS
> 100 µM: all other assays above
